Assay [1] deals with T1, human JAK1 (a.a. 837-1142) catalytic domain (Homo sapiens, UniProt P23458).
T1 construct: human JAK1 (a.a. 837-1142); His tag (N); made in house; host or cells: insect cells (baculovirus)
As to the kind of experiment: In vitro JAK kinase assay (HTRF, phosphorylation of biotinylated peptide), JAK1. The class given is biochemical. The settings on record: ATP 1 mM. The protocol:
Compounds herein were tested for inhibitory activity of JAK targets according to the following in vitro assay described in Park et al., Analytical Biochemistry 1999, 269, 94-104. The catalytic domains of human JAK1 (a.a. 837-1142) and JAK2 (a.a. 828-1132) with an N-terminal His tag were expressed using baculovirus in insect cells and purified. The catalytic activity of JAK1 and JAK2 was assayed by measuring the phosphorylation of a biotinylated peptide. The phosphorylated peptide was detected by homogenous time resolved fluorescence (HTRF). […] For the 1 mM IC50 measurements, ATP concentration in the reactions was 1 mM. Reactions were carried out at room temperature for 1 hour and then stopped with 20 μL 45 mM EDTA, 300 nM SA-APC, 6 nM Eu-Py20 in assay buffer (Perkin Elmer, Boston, Mass.). Binding to the Europium labeled antibody took place for 40 minutes and HTRF signal was measured on a Fusion plate reader (Perkin Elmer, Boston, Mass.). […] Data is indicated as ranges, wherein “+” is less than 5 nM; “++” is 5 nM to 25 nM; “+++” is greater than 25 nM to 100 nM; and “++++” is greater than 100 nM.

The target of assay [2] is T2, JAK2 (a.a. 828-1132) catalytic domain (Homo sapiens, UniProt O60674).
T2 construct: JAK2 (a.a. 828-1132); His tag (N); made in house; host or cells: insect cells (baculovirus)
As to the kind of experiment: In vitro JAK kinase assay (HTRF, phosphorylation of biotinylated peptide), JAK2. In kind it is biochemical. To be noted: ATP 1 mM. The protocol:
Compounds herein were tested for inhibitory activity of JAK targets according to the following in vitro assay described in Park et al., Analytical Biochemistry 1999, 269, 94-104. The catalytic domains of human JAK1 (a.a. 837-1142) and JAK2 (a.a. 828-1132) with an N-terminal His tag were expressed using baculovirus in insect cells and purified. The catalytic activity of JAK1 and JAK2 was assayed by measuring the phosphorylation of a biotinylated peptide. The phosphorylated peptide was detected by homogenous time resolved fluorescence (HTRF). […] For the 1 mM IC50 measurements, ATP concentration in the reactions was 1 mM. Reactions were carried out at room temperature for 1 hour and then stopped with 20 μL 45 mM EDTA, 300 nM SA-APC, 6 nM Eu-Py20 in assay buffer (Perkin Elmer, Boston, Mass.). Binding to the Europium labeled antibody took place for 40 minutes and HTRF signal was measured on a Fusion plate reader (Perkin Elmer, Boston, Mass.). See Tables A and B for data related to compounds of the invention (at 1 mM). Data is indicated as ranges, wherein “+” is less than 5 nM; “++” is 5 nM to 25 nM; “+++” is greater than 25 nM to 100 nM; and “++++” is greater than 100 nM.

Molecules are shown by their SMILES.

T2 sequence (O60674 828-1132): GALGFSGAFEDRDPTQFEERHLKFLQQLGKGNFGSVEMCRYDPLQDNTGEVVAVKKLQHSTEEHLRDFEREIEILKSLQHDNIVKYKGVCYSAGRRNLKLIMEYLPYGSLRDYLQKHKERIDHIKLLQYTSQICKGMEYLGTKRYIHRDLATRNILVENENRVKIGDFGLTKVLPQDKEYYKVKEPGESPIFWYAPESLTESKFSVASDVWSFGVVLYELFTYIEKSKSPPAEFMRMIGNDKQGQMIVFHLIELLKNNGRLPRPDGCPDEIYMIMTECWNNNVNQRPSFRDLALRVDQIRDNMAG
T1 sequence (P23458 849-1154): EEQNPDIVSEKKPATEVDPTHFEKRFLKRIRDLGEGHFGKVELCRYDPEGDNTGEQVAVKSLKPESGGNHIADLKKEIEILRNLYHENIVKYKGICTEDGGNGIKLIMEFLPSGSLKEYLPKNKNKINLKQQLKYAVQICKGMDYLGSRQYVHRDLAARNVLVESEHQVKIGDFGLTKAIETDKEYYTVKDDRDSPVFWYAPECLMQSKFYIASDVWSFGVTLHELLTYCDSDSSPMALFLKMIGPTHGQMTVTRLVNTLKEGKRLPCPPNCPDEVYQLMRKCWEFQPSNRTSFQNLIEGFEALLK

As for `CNC(=O)c1cc(F)cc(OC2CCN(CC(CC#N)n3cc(-c4ncnc5[nH]ccc45)cn3)CC2)c1` (stereo not drawn) [Example 7, 3-[(1-{3-Cyano-2-[4-(7H-pyrrolo[2,3-d]pyrimidin-4-yl)-1H-pyrazol-1-yl]propyl}piperidin-4-yl)oxy]-5-fluoro-N-methylbenzamide tris(trifluoroacetate)], the IC50 in assay [1] (Table A) is less than 5 nM; in assay [2] (Table A) it was 5 to 25 nM.

As for `COCCNCc1cc(F)cc(OC2CCN(CC(CC#N)n3cc(-c4ncnc5[nH]ccc45)cn3)CC2)c1` (stereo not drawn) [Example 30, 4-[4-(3-fluoro-5-{[(2-methoxyethyl)amino]methyl}phenoxy)piperidin-1-yl]-3-[4-(7H-pyrrolo[2,3-d]pyrimidin-4-yl)-1H-pyrazol-1-yl]butanenitrile], the IC50 in assay [1] (Table A) lay in the range of 5 to 25 nM; in assay [2] (Table A), 25 to 100 nM.

For `N#CCC(CN1CCC(Oc2cc(F)cc(C#N)c2)C(F)C1)n1cc(-c2ncnc3[nH]ccc23)cn1` (single isomer, unassigned) [Example 31 diastereomer 2, 3-[(1-{3-Cyano-2-[4-(7H-pyrrolo[2,3-d]pyrimidin-4-yl)-1H-pyrazol-1-yl]propyl}-3-fluoropiperidin-4-yl)oxy]-5-fluorobenzonitrile (two diastereomers)], the IC50 in assay [1] (Table B) is less than 5 nM; in assay [2] (Table B), 25 to 100 nM.

In the case of `N#CCC(CN1CCC(Oc2cc(F)cc(C(=O)NC3CC3)c2)CC1)n1cc(-c2ncnc3[nH]ccc23)cn1` (stereo not drawn) [Example 10, 3-[(1-{3-Cyano-2-[4-(7H-pyrrolo[2,3-d]pyrimidin-4-yl)-1H-pyrazol-1-yl]propyl}piperidin-4-yl)oxy]-N-cyclopropyl-5-fluorobenzamide], the IC50 in assay [1] (Table A) is less than 5 nM; in assay [2] (Table A), 5 to 25 nM.

Take `N#CCC(CN1CCC(Oc2cc(F)cc(CNC3CCC3)c2)CC1)n1cc(-c2ncnc3[nH]ccc23)cn1` (stereo not drawn) [Example 23, 4-(4-{3-[(cyclobutylamino)methyl]-5-fluorophenoxy}piperidin-1-yl)-3-[4-(7H-pyrrolo[2,3-d]pyrimidin-4-yl)-1H-pyrazol-1-yl]butanenitrile tetrakis(trifluoroacetate)]: the IC50 in assay [1] (Table A) fell in the range of 5 to 25 nM; in assay [2] (Table A), 25 to 100 nM.

`N#CCC(CN1CCC(Oc2cc(F)c(F)c(F)c2)CC1)n1cc(-c2ncnc3[nH]ccc23)cn1` (stereo not drawn) [Example 4, 3-[4-(7H-Pyrrolo[2,3-d]pyrimidin-4-yl)-1H-pyrazol-1-yl]-4-[4-(3,4,5-trifluorophenoxy)piperidin-1-yl]butanenitrile tris(trifluoroacetate)]: the figures for the IC50 in assay [1] (Table A) and in assay [2] (Table A) were 5 to 25 nM and 25 to 100 nM, respectively.

In the case of `C[C@H]1CCCN1Cc1cc(F)cc(OC2CCN(CC(CC#N)n3cc(-c4ncnc5[nH]ccc45)cn3)CC2F)c1` (single isomer, unassigned) [Example 33 diastereomer 2], the IC50 in assay [1] (Table B) was less than 5 nM; in assay [2] (Table B) it was 25 to 100 nM.

As to `N#CCC(CN1CCC(Oc2cc(F)cc(CN3CCCC3)c2)CC1)n1cc(-c2ncnc3[nH]ccc23)cn1` (stereo not drawn) [Example 24, 4-{4-[3-fluoro-5-(pyrrolidin-1-ylmethyl)phenoxy]piperidin-1-yl}-3-[4-(7H-pyrrolo[2,3-d]pyrimidin-4-yl)-1H-pyrazol-1-yl]butanenitrile tetrakis(trifluoroacetate)], the IC50 is less than 5 nM in assay [1] (Table A) and 25 to 100 nM in assay [2] (Table A).

The compound `CN(C)Cc1cc(F)cc(OC2CCN(CC(CC#N)n3cc(-c4ncnc5[nH]ccc45)cn3)CC2)c1` (single isomer, unassigned) [Example 20 Enantiomer 2, 4-(4-{3-[(Dimethylamino)methyl]-5-fluorophenoxy}piperidin-1-yl)-3-[4-(7H-pyrrolo[2,3-d]pyrimidin-4-yl)-1H-pyrazol-1-yl]butanenitrile (chiral)] returned an IC50 in assay [2] (Table A) of 5 to 25 nM.

With `CC(C)(C)NC(=O)c1cc(F)cc(OC2CCN(CC(CC#N)n3cc(-c4ncnc5[nH]ccc45)cn3)CC2)c1` (stereo not drawn) [Example 15, N-(tert-Butyl)-3-[(1-{3-cyano-2-[4-(7H-pyrrolo[2,3-d]pyrimidin-4-yl)-1H-pyrazol-1-yl]propyl}piperidin-4-yl)oxy]-5-fluorobenzamide tris(trifluoroacetate)], the IC50 in assay [1] (Table A) and in assay [2] (Table A) was less than 5 nM in each case.

Regarding `C[C@@H]1CCCN1Cc1cc(F)cc(OC2CCN(CC(CC#N)n3cc(-c4ncnc5[nH]ccc45)cn3)CC2F)c1` (single isomer, unassigned) [Example 32 diastereomer 2], the IC50 in assay [1] (Table B) was less than 5 nM; in assay [2] (Table B), 5 to 25 nM.

Consider `C[C@@H]1CCCN1Cc1cc(F)cc(OC2CCN(CC(CC#N)n3cc(-c4ncnc5[nH]ccc45)cn3)CC2)c1` (stereo partly drawn) [Example 28, 4-[4-(3-fluoro-5-{[(2R)-2-methylpyrrolidin-1-yl]methyl}phenoxy)piperidin-1-yl]-3-[4-(7H-pyrrolo[2,3-d]pyrimidin-4-yl)-1H-pyrazol-1-yl]butanenitrile], for which the IC50 in assay [1] (Table A) is less than 5 nM; in assay [2] (Table A), 25 to 100 nM.

`N#CCC(CN1CCC(Oc2cc(F)cc(F)c2)CC1)n1cc(-c2ncnc3[nH]ccc23)cn1` (stereo not drawn) [Example 1, 4-[4-(3,5-Difluorophenoxy)piperidin-1-yl]-3-[4-(7H-pyrrolo[2,3-d]pyrimidin-4-yl)-1H-pyrazol-1-yl]butanenitrile tris(trifluoroacetate)]: the IC50 was in the range of 5 to 25 nM in assay [1] (Table A) and 25 to 100 nM in assay [2] (Table A).

`CN(Cc1cc(F)cc(OC2CCN(CC(CC#N)n3cc(-c4ncnc5[nH]ccc45)cn3)CC2)c1)C1CC1` (stereo not drawn) [Example 21, 4-[4-(3-{[cyclopropyl(methyl)amino]methyl}-5-fluorophenoxy)piperidin-1-yl]-3-[4-(7H-pyrrolo[2,3-d]pyrimidin-4-yl)-1H-pyrazol-1-yl]butanenitrile]: the IC50 in assay [1] (Table A) was less than 5 nM; in assay [2] (Table A), more than 100 nM.

For `N#CCC(CN1CCC(Oc2cc(F)cc(CN3CCC3)c2)CC1)n1cc(-c2ncnc3[nH]ccc23)cn1` (stereo not drawn) [Example 22], the IC50 in assay [1] (Table A) is less than 5 nM; in assay [2] (Table A), 25 to 100 nM.

As to `CCNC(=O)c1cc(F)cc(OC2CCN(CC(CC#N)n3cc(-c4ncnc5[nH]ccc45)cn3)CC2)c1` (stereo not drawn) [Example 9, 3-[(1-{3-Cyano-2-[4-(7H-pyrrolo[2,3-d]pyrimidin-4-yl)-1H-pyrazol-1-yl]propyl}piperidin-4-yl)oxy]-N-ethyl-5-fluorobenzamide], the IC50 in assay [1] (Table A) was less than 5 nM; in assay [2] (Table A), 5 to 25 nM.

Turning to `N#CCC(CN1CCC(Oc2cc(F)cc(C(=O)N3CCCC3)c2)CC1)n1cc(-c2ncnc3[nH]ccc23)cn1` (stereo not drawn) [Example 13, 4-{4-[3-Fluoro-5-(pyrrolidin-1-ylcarbonyl)phenoxy]piperidin-1-yl}-3-[4-(7H-pyrrolo[2,3-d]pyrimidin-4-yl)-1H-pyrazol-1-yl]butanenitrile tris(trifluoroacetate)], the IC50 was less than 5 nM in assay [1] (Table A) and 5 to 25 nM in assay [2] (Table A).

Turning to `N#CCC(CN1CCC(Oc2cc(F)cc(CN3CCC(F)(F)C3)c2)CC1)n1cc(-c2ncnc3[nH]ccc23)cn1` (stereo not drawn) [Example 27, 4-(4-{3-[(3,3-difluoropyrrolidin-1-yl)methyl]-5-fluorophenoxy}piperidin-1-yl)-3-[4-(7H-pyrrolo[2,3-d]pyrimidin-4-yl)-1H-pyrazol-1-yl]butanenitrile], the values for the IC50 in assay [1] (Table A) and in assay [2] (Table A) were 5 to 25 nM and more than 100 nM, respectively.

Turning to `N#CCC(CN1CCC(Oc2cc(F)cc(F)c2F)CC1)n1cc(-c2ncnc3[nH]ccc23)cn1` (stereo not drawn) [Example 5, 3-[4-(7H-Pyrrolo[2,3-d]pyrimidin-4-yl)-1H-pyrazol-1-yl]-4-[4-(2,3,5-trifluorophenoxy)piperidin-1-yl]butanenitrile tris(trifluoroacetate)], the results for the IC50 in assay [1] (Table A) and in assay [2] (Table A) were less than 5 nM and 5 to 25 nM, respectively.

Turning to `N#CCC(CN1CCC(Oc2cc(F)cc(C(=O)NCCC(N)=O)c2)CC1)n1cc(-c2ncnc3[nH]ccc23)cn1` (stereo not drawn) [Example 14, N-(3-Amino-3-oxopropyl)-3-[1(1-{3-cyano-2-[4-(7H-pyrrolo[2,3-d]pyrimidin-4-yl)-1H-pyrazol-1-yl]propyl}piperidin-4-yl)oxy]-5-fluorobenzamide tris(trifluoroacetate)], the IC50 is less than 5 nM in assay [1] (Table A) and 5 to 25 nM in assay [2] (Table A).

Source of the values: patent US9034884B2, “Heterocyclic-substituted pyrrolopyridines and pyrrolopyrimidines as JAK inhibitors” (Incyte Corporation, priority 2010, dated 2015).
